Results published in article PMC12195740, “Discovery of Novel Imidazothiazole-Based Hydroxamic Acid Derivatives as Potent Indoleamine 2,3-Dioxygenase 1 and Histone Deacetylase 6 Dual Inhibitors” (Molecules, 2025).

Experiments:
MDA-MB-231 cells = assay: Cell viability (MTT) assay, MDA-MB-231; conditions: Homo sapiens, MDA-MB-231, 48 h, read-out: Antiproliferative IC50, MDA-MB-231
Description: Section S 1.3 Cell viability assays
(§11) Cell Bank at the Chinese Academy of Sciences.
(§12) DMEM and FBS were obtained from Gibco-Thermo (BRL Co. Ltd., USA).
(§13) another 48 h. The cells were stained with 10 μl of MTT at incubator for approximately 4 h. The medium was discarded and replaced by 100 mL DMSO. The O.D. value was read at 570/630 nm with a spectrophotometer.

[1] = system: Ac-histone H3 (substrate for HDACs 1, 2, and 3); assay: Western blot of Ac-histone H3 in HCT-116 cells; assay type: cell-based; conditions: HCT-116, 20 μM, 24 h
Description: (§1) Since HDACs regulate the acetylation status of histone and nonhistone proteins in cells, the acetylation levels of histone H3 (a known substrate for HDACs 1, 2, and 3) and α-tubulin (a known substrate for HDAC6) are frequently used as markers of cellular HDAC activity. […] HCT-116 cells were incubated with compound 10e (5−20 μM) for 24 h, and the levels of acetylation of histone H3 and α-tubulin were detected by the Western blot. […]
(§2) with 75% cold ethanol at 4 °C overnight. After that, fixed cells were washed with PBS. Then, cells were isolated by centrifugation and stained with propidium iodide (KeyGEN BioTECH, China) for 30 min. The samples were measured using flow cytometry and analyzed by Flowjo software.
(§3) Section S 1.6 Western blot assay
(§4) Total cell lysates from cultured HCT-116 cells after treatment with compound 10e as mentioned earlier were obtained by lysing the cells in ice-cold RIPA buffer with protease and phosphatase inhibitor and stored at -20°C for future use. The protein concentrations were quantified by the Bradford method (Bio-Rad) using a Multimode Varioscan instrument (Thermo Fischer Scientific). […]
(§5) The in vivo antitumor activity of compound 10e was evaluated in the mouse colon carcinoma cell line CT-26 in BALB/c mice as described previously. […]

[2] = system: Ac-α-tubulin (substrate for HDAC6); assay: Western blot of Ac-α-tubulin in HCT-116 cells; assay type: cell-based; conditions: HCT-116, 5−20 μM, 24 h
Description: as §1, §2, §3, §4, §5

[3] = Cell viability assay, HK2 normal renal cells; conditions: human
Description: On the basis of the IDO1 and HDAC activities, we explored the proliferation inhibitory activities of the selected compounds against four solid tumor cells lines.

HDAC4 = HDAC4 (Homo sapiens, UniProt P56524); assay: HDAC isoform selectivity assay, HDAC4; assay type: biochemical; conditions: read-out: HDAC4 % inhibition rate at 10 μM
[4] = General toxicity in CT26 tumor-bearing BALB/c mice (body weight, H&E of organs); assay type: in vivo; conditions: 150 mg/kg ip every 3 days for 21 days
Description: (§6) After that, fixed cells were washed with PBS. Then, cells were isolated by centrifugation and stained with propidium iodide (KeyGEN BioTECH, China) for 30 min. The samples were measured using flow cytometry and analyzed by Flowjo software.
(§7) Section S 1.6 Western blot assay […]
(§8) earlier were obtained by lysing the cells in ice-cold RIPA buffer with protease and phosphatase inhibitor and stored at -20°C for future use. The protein concentrations were quantified by the Bradford method (Bio-Rad) using a Multimode Varioscan instrument (Thermo Fischer Scientific). […]
(§9) and transferred to a polyvinylidene difluoride (PVDF) membrane (Amersham Biosciences). After the membrane was blocked at room temperature for 2 h in blocking solution, primary antibody was added and incubated at 4°C overnight. Ac-α-tubulin, Ac-histone H3 and GAPDH antibodies were purchased from Imgenex, USA. After three TBST washes, the membrane was incubated with corresponding horseradish peroxidase-labeled secondary antibody (1:2,000) (Santa Cruz) at room temperature for 1 h. Membranes were washed with TBST three times for 15 min and the protein bands were detected with chemiluminescence reagent (Thermo Fischer Scientific). The X-ray films were developed using developer and fixed with fixer solution.
(§10) Section S 1.7 In vivo antitumor efficacy […]
line CT-26 in BALB/c mice as described previously. Five-week-old male BALB/c mice were purchased from the Shanghai Ling Chang biotechnology company (China), and tumors were induced through subcutaneous injection of 1 × 10^7 cells in 100 µL of sterile PBS into the dorsal region. The animals were divided into four groups, starting on the second day. When the tumors reached a volume of 50−100 mm3 in all mice, the first group was administered intraperitoneally with an equivalent volume of 5% dextrose as the vehicle control. The second group was treated with […]
treated with complex 10e at doses of 150 mg/kg body weight once every 3 days for 3 weeks, respectively. All compounds were dissolved in vehicle. Tumor volumes and body weights were […]

rhIDO1 = target: T1, rhIDO1 (Homo sapiens, UniProt P14902); assay: IDO1 inhibition assay; assay type: biochemical; conditions: means ± S.D. of three independent experiments
T1 construct: purchased
Description: Section S1. Biological assays […]
Section S 1.2 IDO1 inhibition assays
IDO1 inhibition assays were carried out according to the manufacturers’ procedures, as described previously. The standard assay mixture (100 μL) contained 50 mM of potassium phosphate buffer (pH = 6.5), 10 mM ascorbate, 10 μM methylene blue, 100 μg/mL catalase, 1 mM L-tryptophan and 10 μg/mL of rhIDO1. The plate was incubated at 37 °C in a dark environment, and reactions were terminated after 60 min by the addition of 50 μL of fluorogenic developer solution and further incubated at 45 °C in dark for 3 h. Then, the plate was allowed to cool to room temperature for at least 1 h. After centrifugation at 1500g for 5 min at 20 °C, the fluorescence […]
M1000 Pro, Tecan US, Morrisville, NC) in an end-point mode. […]

CT26 tumors = assay: In vivo antitumor efficacy, CT26 tumor-bearing BALB/c mice; conditions: 150 mg/kg ip every 3 days for 21 days
Description: as §6, §7, §8, §9, §10
line CT-26 in BALB/c mice as described previously. […]

HCT-116 cells = assay: Cell viability (MTT) assay, HCT-116; conditions: Homo sapiens, HCT-116, 48 h, read-out: Antiproliferative IC50, HCT-116
Description: Section S 1.3 Cell viability assays
as §11, §12, §13

HDAC1 = HDAC1 (Homo sapiens, UniProt Q13547); assay: HDAC isoform selectivity assay, HDAC1; assay type: biochemical
Sequence of HDAC1 (Q13547 whole entry, species assumed, canonical isoform): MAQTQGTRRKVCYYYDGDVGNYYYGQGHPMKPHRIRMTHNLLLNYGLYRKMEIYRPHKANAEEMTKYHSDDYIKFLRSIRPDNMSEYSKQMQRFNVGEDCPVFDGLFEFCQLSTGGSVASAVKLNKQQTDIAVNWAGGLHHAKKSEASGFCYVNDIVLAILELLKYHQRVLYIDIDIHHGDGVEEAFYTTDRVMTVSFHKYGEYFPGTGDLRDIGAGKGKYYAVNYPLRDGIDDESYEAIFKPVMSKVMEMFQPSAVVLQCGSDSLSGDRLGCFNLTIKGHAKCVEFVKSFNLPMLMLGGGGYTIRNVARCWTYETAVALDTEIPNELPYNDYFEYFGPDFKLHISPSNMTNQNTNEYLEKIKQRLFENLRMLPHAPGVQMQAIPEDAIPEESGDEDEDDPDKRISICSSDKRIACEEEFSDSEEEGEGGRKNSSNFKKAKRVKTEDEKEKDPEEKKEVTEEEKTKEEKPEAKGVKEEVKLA

Sequence of HDAC4 (P56524 whole entry, species assumed, canonical isoform): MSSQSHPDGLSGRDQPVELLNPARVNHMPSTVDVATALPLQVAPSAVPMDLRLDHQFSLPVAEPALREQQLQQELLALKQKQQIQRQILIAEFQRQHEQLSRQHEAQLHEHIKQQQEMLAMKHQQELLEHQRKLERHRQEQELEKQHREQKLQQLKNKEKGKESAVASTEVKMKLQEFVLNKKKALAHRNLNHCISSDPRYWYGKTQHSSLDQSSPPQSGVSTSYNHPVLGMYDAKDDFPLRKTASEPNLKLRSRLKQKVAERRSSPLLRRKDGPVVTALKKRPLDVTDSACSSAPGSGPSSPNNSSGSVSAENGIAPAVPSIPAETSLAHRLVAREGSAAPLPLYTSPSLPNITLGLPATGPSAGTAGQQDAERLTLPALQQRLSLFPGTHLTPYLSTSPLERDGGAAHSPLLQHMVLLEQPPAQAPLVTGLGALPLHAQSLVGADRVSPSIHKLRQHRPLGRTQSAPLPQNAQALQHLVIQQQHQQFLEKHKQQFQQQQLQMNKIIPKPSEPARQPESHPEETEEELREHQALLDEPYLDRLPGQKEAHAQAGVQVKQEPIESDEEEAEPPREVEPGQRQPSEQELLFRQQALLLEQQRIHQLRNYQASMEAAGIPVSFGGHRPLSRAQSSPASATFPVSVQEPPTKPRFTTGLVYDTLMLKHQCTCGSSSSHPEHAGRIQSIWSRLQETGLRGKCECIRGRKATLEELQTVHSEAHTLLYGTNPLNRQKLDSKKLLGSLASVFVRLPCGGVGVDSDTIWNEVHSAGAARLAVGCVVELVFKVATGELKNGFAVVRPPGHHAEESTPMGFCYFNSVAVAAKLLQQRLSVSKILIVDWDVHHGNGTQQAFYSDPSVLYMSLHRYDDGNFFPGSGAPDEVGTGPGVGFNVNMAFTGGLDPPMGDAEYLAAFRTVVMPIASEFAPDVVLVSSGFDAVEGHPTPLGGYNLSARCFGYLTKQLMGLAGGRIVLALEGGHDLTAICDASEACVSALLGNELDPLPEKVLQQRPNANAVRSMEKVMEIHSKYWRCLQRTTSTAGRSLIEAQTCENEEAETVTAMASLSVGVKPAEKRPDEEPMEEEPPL
T1 sequence (P14902 whole entry): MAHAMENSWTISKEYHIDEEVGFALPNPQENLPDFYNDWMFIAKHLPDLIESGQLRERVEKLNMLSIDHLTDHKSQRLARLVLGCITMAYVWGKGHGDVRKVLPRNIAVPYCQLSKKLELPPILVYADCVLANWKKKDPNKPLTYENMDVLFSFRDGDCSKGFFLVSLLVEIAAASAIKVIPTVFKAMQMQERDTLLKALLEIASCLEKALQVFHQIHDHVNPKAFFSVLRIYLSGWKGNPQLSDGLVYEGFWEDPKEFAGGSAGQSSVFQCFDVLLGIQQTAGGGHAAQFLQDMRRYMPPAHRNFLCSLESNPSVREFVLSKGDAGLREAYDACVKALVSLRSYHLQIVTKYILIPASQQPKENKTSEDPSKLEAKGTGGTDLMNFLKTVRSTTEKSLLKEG

IC50 (MDA-MB-231 cells): 43.7 ± 1.89 µM
inhibition at 10 µM (HDAC4): 9.58%
IC50 (rhIDO1): 0.086 ± 0.02 µM
IC50 (HCT-116 cells): 16.4 ± 3.76 µM
IC50 (HDAC1): 1.08 µM
Compound: O=C(CCCCCCNc1ccc(NC(=O)c2cnc3scc(-c4ccc(Br)cc4)n23)cc1)NO [Compound 10e, 3-(4-Bromophenyl)-N-{4-[(7-(hydroxyamino)-7-oxoheptyl)amino]phenyl}imidazo[2,1-b]thiazole-5-carboxamide]
Ac-histone H3 levels [1]: slight increase
Ac-α-tubulin levels [2]: markedly increased
IC50 [3]: > 80 µM
histology of liver, spleen, and kidney (H&E staining) [4]: no obvious histological differences
influence on body weight of the mice ([4]; versus vehicle group): no obvious influence
relative tumor volume growth rate (T/C) (CT26 tumors): 38.32%
tumor growth inhibition (TGI) (CT26 tumors): 60.2%
